Measured values published in paper PMC9055962 (RSC Advances, 2020).
In brackets after ≈: the same amount, converted by molar mass.

Key:
E. coli ATCC 25922 = assay: Broth microdilution MIC / MBC assay, E. coli; type: cell-based; details: Escherichia coli; for MIC: ATCC25922, 24 h, read-out: Antibacterial activity MIC; for MBC: ATCC25922, read-out: Antibacterial activity MBC
S. aureus ATCC 25923 = assay: Broth microdilution MIC / MBC assay, S. aureus; type: cell-based; details: Staphylococcus aureus; for MIC: ATCC25923, 24 h, read-out: Antibacterial activity MIC; for MBC: ATCC25923, read-out: Antibacterial activity MBC
S. aureus = details: cited from earlier work

Compound: O=C(O)/C=C/c1ccc(O)c(O)c1 [CA, caffeic acid]
- MIC (E. coli ATCC 25922): > 1110 µM
- MBC (E. coli ATCC 25922): > 1110 µM
- MIC (S. aureus ATCC 25923): > 1110 µM
- MBC (S. aureus ATCC 25923): > 1110 µM

Compound: CCn1cc(C(=O)O)c(=O)c2cc3c(cc21)OCO3 [OA, oxolinic acid]
- MIC (E. coli ATCC 25922): 3 µM (≈ 0.784 µg/mL)
- MBC (E. coli ATCC 25922): 6 µM (≈ 1.57 µg/mL)
- MIC (S. aureus ATCC 25923): 383 µM (≈ 100 µg/mL)
- MBC (S. aureus ATCC 25923): > 766 µM

Compound: Fc-WRWRW
- minimum inhibitory concentration (MIC) (S. aureus): 7 µM

Compound: WRWRWR
- minimum inhibitory concentration (MIC) (S. aureus): 16 µM
